Data from US7416864B2, “Method for treating dyskinesia” (Schwarz Pharma AG, priority 2004, dated 2008).
“Also recorded” adds a separate entry of the source.

Test system: Reserpine-Induced Tardive Dyskinesia in Mice
Experiment: Reserpine-induced tardive dyskinesia in mice, vacuous chewing movements (VCM) count
Assay type: in vivo
Details: for VCM frequency per 10 min. Mean ± S.E.M.: 1 hour post-administration, male CD1 mice
Method: Male CD1 mice (Charles River Laboratories, France), about 3 month-old were used. During the acclimatization period, animals were housed 5 per cage, in Makrolon type IlIl cages, in the animal room (temperature: 20±2° C., humidity: minimum 45%, air changes: >12 per hour, light/dark cycle of 12 h/12 h [on at 7:00 A.M:]. Animals were allowed a minimum of 5 days period before experiment for acclimatization.
Reserpine (Sigma) was dissolved in glacial acetic acid, diluted in water and administered s.c. at 1 mg/kg. 2 injections were given separated by 48 h. SPM 927 was studied at 3 doses (3, 10 and 30 mg/kg; i.p.) given as a single injection. Clonazepam was administered at 1 mg/kg, i.p. (3).
Reserpine was given twice (Day 1 and Day 3) and SPM 927 was administered 24 h after the last injection of reserpine (Day 4). Behavioral assessment was carried out 1 hour after drug injection (for 10 min). For the behavioral assessment, animals were placed in a plexiglass cage and after 5 min period of habituation, vacuous chewing movements (VCM) were counted for 10 min. VCM occurring during a grooming period were not taken into account.
Results are expressed as means±S.E.M.s of ten individual values. Statistical analyses was done with ANOVA (one way) and Dunnett's t-test. Significance was considered as p<0.05.

Q: Which “effect on reserpine-induced dyskinesia (in words)” value (3 mg/kg i.p., lowest dose) does the source give for COC[C@@H](NC(C)=O)C(=O)NCc1ccccc1 [SPM 927, (R)-2-acetamide-N-benzyl-3-methoxypropionamide] here?
A: little or no effect

Q: What about the “effect on number of vacuous chewing movements (in words)” value (10 mg/kg i.p.) of the same compound?
A: reduced the number of vacuous chewing movements

Q: What about the “effect on number of vacuous chewing movements (in words)” value (30 mg/kg i.p., highest dose, statistically significant (p<0.05 versus vehicle group)) of the same compound?
A: reduced the number of vacuous chewing movements

Q: And the “VCM frequency per 10 min. Mean ± S.E.M.” value (Reserpine 1 mg/kg s.c. + SPM 927 3 mg/kg i.p., reserpine + vehicle group 41.4 ± 6.4)?
A: 48.6 ± 10.6 per 10 min

Q: What about the “VCM frequency per 10 min. Mean ± S.E.M.” value (Reserpine 1 mg/kg s.c. + SPM 927 10 mg/kg i.p., reserpine + vehicle group 41.4 ± 6.4) of the same compound?
A: 26.6 ± 5.7 per 10 min

Q: What about the “VCM frequency per 10 min. Mean ± S.E.M.” value (Reserpine 1 mg/kg s.c. + SPM 927 30 mg/kg i.p., p < 0.05 versus reserpine + vehicle group (41.4 ± 6.4)) of the same compound?
A: 23.9 ± 7.9 per 10 min

Q: And the “overall effect on reserpine-induced tardive dyskinesia / vacuous chewing movements (in words)” value (mice, no dose stated)?
A: attenuates reserpine induced vacuous chewing movements; also recorded: significant efficacy in reducing tardive dyskinesia
